Results from the NIST ThermoML archive (doi:10.1021/je0604481).
± gives the expanded uncertainty stated by the source.

Test: mn = molality of the nth substance listed, in mol/kg
Conditions: Liquid; for mass density: Constant-volume piezometry; for viscosity: Capillary tube (Ostwald / Ubbelohde) method

O=S(=O)([O-])[O-].[Mg+2] [magnesium sulfate] + O
Conditions | mass density [kg/m3] | viscosity [mPa·s]
288.57 K, 101 kPa, m1 = 2.224 | 1235.34 ± 0.75 | –
288.57 K, 101 kPa, m1 = 2.535 | 1263.36 ± 0.77 | –
291.15 K, 101 kPa, m1 = 0.084 | 1008.8 ± 0.61 | –
297.7 K, 101 kPa, m1 = 2.224 | 1231.87 ± 0.75 | –
297.7 K, 101 kPa, m1 = 2.535 | 1259.83 ± 0.77 | –
298.15 K, 100 kPa, m1 = 0.085 | – | 0.9407 ± 0.015
298.15 K, 100 kPa, m1 = 0.255 | – | 1.055 ± 0.017
298.15 K, 100 kPa, m1 = 0.437 | – | 1.184 ± 0.019
298.15 K, 100 kPa, m1 = 0.722 | – | 1.442 ± 0.023
298.15 K, 100 kPa, m1 = 0.923 | – | 1.651 ± 0.027
298.15 K, 100 kPa, m1 = 1.824 | – | 3.137 ± 0.05
298.15 K, 100 kPa, m1 = 2.291 | – | 4.414 ± 0.071
298.15 K, 100 kPa, m1 = 2.623 | – | 5.789 ± 0.092
298.15 K, 10000 kPa, m1 = 0.085 | – | 0.94 ± 0.015
298.15 K, 10000 kPa, m1 = 0.255 | – | 1.054 ± 0.017
298.15 K, 10000 kPa, m1 = 0.437 | – | 1.184 ± 0.019
298.15 K, 10000 kPa, m1 = 0.722 | – | 1.443 ± 0.023
298.15 K, 10000 kPa, m1 = 0.923 | – | 1.653 ± 0.027
298.15 K, 10000 kPa, m1 = 1.824 | – | 3.138 ± 0.05
298.15 K, 10000 kPa, m1 = 2.291 | – | 4.415 ± 0.071
298.15 K, 10000 kPa, m1 = 2.623 | – | 5.79 ± 0.092
298.15 K, 30000 kPa, m1 = 0.085 | – | 0.9415 ± 0.015
298.15 K, 30000 kPa, m1 = 0.255 | – | 1.056 ± 0.017
298.15 K, 30000 kPa, m1 = 0.437 | – | 1.185 ± 0.019
298.15 K, 30000 kPa, m1 = 0.722 | – | 1.445 ± 0.023
298.15 K, 30000 kPa, m1 = 0.923 | – | 1.655 ± 0.027
298.15 K, 30000 kPa, m1 = 1.824 | – | 3.14 ± 0.051
298.15 K, 30000 kPa, m1 = 2.291 | – | 4.417 ± 0.071
298.15 K, 30000 kPa, m1 = 2.623 | – | 5.792 ± 0.092
299.67 K, 2040 kPa, m1 = 2.224 | 1231.7 ± 0.8 | –
299.67 K, 7179 kPa, m1 = 2.224 | 1233.3 ± 0.8 | –
299.67 K, 16830 kPa, m1 = 2.224 | 1236.3 ± 0.8 | –
299.67 K, 22550 kPa, m1 = 2.224 | 1238.2 ± 0.8 | –
299.67 K, 29600 kPa, m1 = 2.224 | 1240.3 ± 0.9 | –
303.03 K, 101 kPa, m1 = 0.469 | 1050.08 ± 0.64 | –
303.15 K, 101 kPa, m1 = 0.841 | 1090.98 ± 0.67 | –
308.15 K, 100 kPa, m1 = 0.085 | – | 0.761 ± 0.012
308.15 K, 100 kPa, m1 = 0.255 | – | 0.8459 ± 0.014
308.15 K, 100 kPa, m1 = 0.437 | – | 0.9437 ± 0.015
308.15 K, 100 kPa, m1 = 0.722 | – | 1.151 ± 0.019
308.15 K, 100 kPa, m1 = 0.923 | – | 1.305 ± 0.021
308.15 K, 100 kPa, m1 = 1.824 | – | 2.415 ± 0.039
308.15 K, 100 kPa, m1 = 2.291 | – | 3.374 ± 0.054
308.15 K, 100 kPa, m1 = 2.623 | – | 4.352 ± 0.07
308.15 K, 10000 kPa, m1 = 0.085 | – | 0.7618 ± 0.012
308.15 K, 10000 kPa, m1 = 0.255 | – | 0.8466 ± 0.014
308.15 K, 10000 kPa, m1 = 0.437 | – | 0.946 ± 0.015
308.15 K, 10000 kPa, m1 = 0.722 | – | 1.153 ± 0.019
308.15 K, 10000 kPa, m1 = 0.923 | – | 1.305 ± 0.021
308.15 K, 10000 kPa, m1 = 1.824 | – | 2.418 ± 0.039
308.15 K, 10000 kPa, m1 = 2.291 | – | 3.376 ± 0.054
308.15 K, 10000 kPa, m1 = 2.623 | – | 4.355 ± 0.07
308.15 K, 30000 kPa, m1 = 0.085 | – | 0.7645 ± 0.013
308.15 K, 30000 kPa, m1 = 0.255 | – | 0.8495 ± 0.014
308.15 K, 30000 kPa, m1 = 0.437 | – | 0.9486 ± 0.015
308.15 K, 30000 kPa, m1 = 0.722 | – | 1.156 ± 0.019
308.15 K, 30000 kPa, m1 = 0.923 | – | 1.309 ± 0.021
308.15 K, 30000 kPa, m1 = 1.824 | – | 2.422 ± 0.039
308.15 K, 30000 kPa, m1 = 2.291 | – | 3.348 ± 0.054
308.15 K, 30000 kPa, m1 = 2.623 | – | 4.364 ± 0.07
308.6 K, 101 kPa, m1 = 0.261 | 1024.48 ± 0.63 | –
310.15 K, 101 kPa, m1 = 2.224 | 1226.56 ± 0.75 | –
310.15 K, 101 kPa, m1 = 2.535 | 1254.38 ± 0.77 | –
314.98 K, 2157 kPa, m1 = 2.535 | 1252.7 ± 0.8 | –
314.98 K, 8159 kPa, m1 = 2.535 | 1254.5 ± 0.8 | –
314.98 K, 15690 kPa, m1 = 2.535 | 1256.7 ± 0.8 | –
314.98 K, 25910 kPa, m1 = 2.535 | 1259.9 ± 0.9 | –
314.98 K, 29800 kPa, m1 = 2.535 | 1261 ± 0.9 | –
323.05 K, 2197 kPa, m1 = 2.224 | 1221.5 ± 0.8 | –
323.05 K, 10120 kPa, m1 = 2.224 | 1224 ± 0.8 | –
323.05 K, 19850 kPa, m1 = 2.224 | 1227 ± 0.8 | –
323.05 K, 26300 kPa, m1 = 2.224 | 1229.1 ± 0.8 | –
323.05 K, 30500 kPa, m1 = 2.224 | 1230.3 ± 0.9 | –
323.15 K, 100 kPa, m1 = 0.085 | – | 0.5785 ± 0.0095
323.15 K, 100 kPa, m1 = 0.255 | – | 0.6403 ± 0.01
323.15 K, 100 kPa, m1 = 0.437 | – | 0.7163 ± 0.012
323.15 K, 100 kPa, m1 = 0.722 | – | 0.8612 ± 0.014
323.15 K, 100 kPa, m1 = 0.923 | – | 0.9738 ± 0.016
323.15 K, 100 kPa, m1 = 1.824 | – | 1.744 ± 0.028
323.15 K, 100 kPa, m1 = 2.291 | – | 2.373 ± 0.038
323.15 K, 100 kPa, m1 = 2.623 | – | 2.997 ± 0.048
323.15 K, 101 kPa, m1 = 0.084 | 998.05 ± 0.61 | –
323.15 K, 101 kPa, m1 = 0.261 | 1018.3 ± 0.63 | –
323.15 K, 101 kPa, m1 = 0.469 | 1041.45 ± 0.64 | –
323.15 K, 101 kPa, m1 = 0.841 | 1082.67 ± 0.67 | –
323.15 K, 10000 kPa, m1 = 0.085 | – | 0.5809 ± 0.0095
323.15 K, 10000 kPa, m1 = 0.255 | – | 0.6431 ± 0.01
323.15 K, 10000 kPa, m1 = 0.437 | – | 0.7198 ± 0.012
323.15 K, 10000 kPa, m1 = 0.722 | – | 0.8651 ± 0.014
323.15 K, 10000 kPa, m1 = 0.923 | – | 0.9781 ± 0.016
323.15 K, 10000 kPa, m1 = 1.824 | – | 1.751 ± 0.028
323.15 K, 10000 kPa, m1 = 2.291 | – | 2.382 ± 0.038
323.15 K, 10000 kPa, m1 = 2.623 | – | 3.009 ± 0.048
323.15 K, 30000 kPa, m1 = 0.085 | – | 0.5856 ± 0.0096
323.15 K, 30000 kPa, m1 = 0.255 | – | 0.648 ± 0.011
323.15 K, 30000 kPa, m1 = 0.437 | – | 0.7256 ± 0.012
323.15 K, 30000 kPa, m1 = 0.722 | – | 0.8714 ± 0.014
323.15 K, 30000 kPa, m1 = 0.923 | – | 0.9853 ± 0.016
323.15 K, 30000 kPa, m1 = 1.824 | – | 1.764 ± 0.028
323.15 K, 30000 kPa, m1 = 2.291 | – | 2.4 ± 0.039
323.15 K, 30000 kPa, m1 = 2.623 | – | 3.031 ± 0.049
324.35 K, 101 kPa, m1 = 2.224 | 1219.96 ± 0.75 | –
324.35 K, 101 kPa, m1 = 2.535 | 1247.46 ± 0.77 | –
340.25 K, 101 kPa, m1 = 2.224 | 1211.6 ± 0.75 | –
340.25 K, 101 kPa, m1 = 2.535 | 1238.93 ± 0.77 | –
348.13 K, 1549 kPa, m1 = 2.535 | 1235.1 ± 0.8 | –
348.13 K, 9807 kPa, m1 = 2.535 | 1237.7 ± 0.8 | –
348.13 K, 14220 kPa, m1 = 2.535 | 1238.9 ± 0.8 | –
348.13 K, 23810 kPa, m1 = 2.535 | 1241.9 ± 0.9 | –
348.13 K, 30020 kPa, m1 = 2.535 | 1243.8 ± 0.9 | –
348.15 K, 100 kPa, m1 = 0.437 | – | 0.491 ± 0.0081
